Source: ChEMBL document CHEMBL5131523, “Long-Awaited Small-Molecule Drug Candidate for Drugging the Next Undruggable KRASG12D Mutant in Cancer Therapy” (ACS Med Chem Lett, 2022)

What follows are molecules tested on BaF3 (assay: Antiproliferative activity against mouse BaF3 cells harboring KRAS G12D mutant assessed as inhibition of cell proliferation incubated for 3 days by CellTiter-Glo assay). Conditions: BaF3, 72 h.
Format: toxicity, cell-based

Structure (SMILES) | IC50 [nM]
C#Cc1c(F)ccc2cc(O)cc(-c3nc(OCC(F)F)c4c(N5C[C@H]6CC[C@@H](C5)N6)nc(OC[C@@]56CCCN5C[C@H](F)C6)nc4c3F)c12 | ≤ 500
C#Cc1c(F)ccc2cc(O)cc(-c3nc(OC(C)C)c4c(N5C[C@H]6CC[C@@H](C5)N6)nc(OC[C@@]56CCCN5C[C@H](F)C6)nc4c3F)c12 | ≤ 500
C#Cc1c(F)ccc2cc(O)cc(-c3nc(OC(C)C)c4c(N5C[C@H]6CC[C@@H](C5)N6)nc(C(F)F)nc4c3F)c12 | ≤ 500
C#Cc1c(F)ccc2cc(O)cc(-c3nc(OC(C)C)c4c(N5C[C@H]6CC[C@@H](C5)N6)nc(NC)nc4c3F)c12 | 500
Cc1cccc2cc(O)cc(-c3nc(C)c4c(N5C[C@H]6CC[C@@H](C5)N6)nc(OC[C@@]56CCCN5C[C@H](F)C6)nc4c3F)c12 | ≤ 500
Cc1nc(-c2cc(O)cc3cccc(Cl)c23)c(F)c2nc(OC[C@@]34CCCN3C[C@H](F)C4)nc(N3C[C@H]4CC[C@@H](C3)N4)c12 | ≤ 500
CCOc1nc(-c2cc(O)cc3ccc(F)c(Cl)c23)c(F)c2nc(OC[C@@]34CCCN3C[C@H](F)C4)nc(N3C[C@H]4CC[C@@H](C3)N4)c12 | ≤ 500
C#Cc1c(F)ccc2cc(O)cc(-c3nc(OCC)c4c(N5CCNC6(CCC6)C5)nc(OC[C@@]56CCCN5C[C@H](F)C6)nc4c3F)c12 | ≤ 500
Oc1cc(-c2nc(Cl)c3c(N4C[C@H]5CC[C@@H](C4)N5)nc(OC[C@@]45CCCN4C[C@H](F)C5)nc3c2F)c2ccccc2c1 | ≤ 500
C#Cc1c(F)ccc2cc(O)cc(-c3nc(OC(F)F)c4c(N5C[C@H]6CC[C@@H](C5)N6)nc(OC[C@@]56CCCN5C[C@H](F)C6)nc4c3F)c12 | ≤ 500
Fc1c(-c2cccc3cccc(Cl)c23)ncc2c(N3C[C@H]4CC[C@@H](C3)N4)nc(OCC34CCCN3CCC4)nc12 | ≤ 500
Oc1cc(-c2nc(O)c3c(N4C[C@H]5CC[C@@H](C4)N5)nc(OC[C@@]45CCCN4C[C@H](F)C5)nc3c2F)c2c(Cl)c(F)ccc2c1 | 500
